Legend:
[1] = Saturation magnetization measurement (magnetic property evaluation device MPMS7); assay type: physicochemical
Description: The measurement was conducted based on a magnetic property evaluation device MPMS7 manufactured by Kantum.

[2] = Particle diameter of single crystal by transmission electron microscope; assay type: physicochemical; details: single crystal of the salen complex having the highest ferromagnetic property; TEM, 140 samples
Description: A used device, conditions, and so on are as follows. Device: transmission electron microscope (H-7100FA manufactured by Hitachi) Conditions: acceleration voltage 100 kV Sample adjustment: dispersion method (after the salen complex was ground with a mortar, pure water was added to the ground salen complex, which was then dispersed in a grid by TEM) Grain size distribution measurement software: Image-Pro plus (Media cybermetrics, MD, U.S.A.) Measured target: traced images of the iron-salen complex in TEM photographs Number of samples: 140

## Oc1ccccc1C=NCCN=Cc1ccccc1O.[Fe+2] [iron-salen complex, N,N′-bis(salicylidene)ethylenediamine iron(II)]
[1]; crystals having the highest magnetic property among 5-6 iron-salen complex preparations
  saturation magnetization: 1.25 emu/g
[1]; crystals having the lowest magnetic property among those complexes
  saturation magnetization: 0.02 emu/g
[2]
  average particle diameter: 450 nm
